In patent publication US12378263B2, “Modulators of sestrin-GATOR2 interaction and uses thereof” (Navitor Pharmaceuticals, Inc., priority 2015, dated 2025):

Columns and labels:
mTORC1 = assay: Cell-based mTORC1 activation (Method 2), western blot of phosphorylated S6 Kinase and 4EBP1 in HEK293T cells; conditions: shift relative to DMSO control, HEK293T cells after leucine starvation
Procedure: Briefly, 800,000 HEK293T cells were plated in each well of a 6-well plate in DMEM supplemented with 10% fetal bovine serum and antibiotics. […] Cells were then lysed, processed for SDS-PAGE and western blotting was performed with antibodies directed against the mTORC1 substrates phosphorylated S6 Kinase (Thr389) and phosphorylated 4EBP1 (Thr37/46) (Cell Signaling Technology) and loading controls (beta-actin, Santa Cruz Biotechnology) as described in Kang, S. A., et al. Science 341(6144): 364-374 (2013). The intensity of the bands corresponding to the phosphorylated substrates were then normalized to the actin band using the LI-COR® imaging platform.

[1] = molecular target: T1, GATOR2/Sestrin2 complexes (Homo sapiens, UniProt P58004); assay: In vitro PPI assay (Method 1): Sestrin2 bound to GATOR2, western blot, % activity relative to leucine; format: binding; conditions: compound at 25 μM; leucine 25 μM = 100% activity; duplicate
T1 construct: The Flag-WDR24/endogenous-Sestrin2 complex was isolated as follows; expressed in transfected cells; host or cells: HEK293T cells stably expressing FLAG-WDR24 (lentiviral vector pLJM60); Sestrin2 and the remaining GATOR2 subunits are endogenous
T1 sequence (P58004 1-480): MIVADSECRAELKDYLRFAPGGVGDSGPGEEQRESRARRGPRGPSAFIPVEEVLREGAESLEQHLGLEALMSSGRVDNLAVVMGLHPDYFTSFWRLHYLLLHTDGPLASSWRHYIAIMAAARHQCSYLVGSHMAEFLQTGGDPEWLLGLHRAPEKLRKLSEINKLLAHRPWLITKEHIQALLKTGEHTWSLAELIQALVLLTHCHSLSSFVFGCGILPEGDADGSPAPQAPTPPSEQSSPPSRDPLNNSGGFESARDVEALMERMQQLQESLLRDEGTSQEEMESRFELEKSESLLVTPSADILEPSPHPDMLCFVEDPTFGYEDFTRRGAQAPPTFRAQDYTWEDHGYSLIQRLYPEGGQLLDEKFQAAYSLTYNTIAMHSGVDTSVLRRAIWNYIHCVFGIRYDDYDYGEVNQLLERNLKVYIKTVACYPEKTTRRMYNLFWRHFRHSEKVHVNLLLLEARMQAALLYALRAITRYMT
Description: This screening assay measured test compound activity in vitro on GATOR2/Sestrin2 complexes purified via immunoprecipitation of stably expressed FLAG-WDR24 from HEK293T cells. HEK293T cells (293 Ts) were engineered to stably express N-terminally tagged FLAG-WDR24 via transduction by lentivirus. Lentiviruses were produced by co-transfection of the lentiviral transfer vector pLJM60 with the […] into HEK-293T cells using the XTremeGene 9 transfection reagent (Roche Diagnostics). The media was changed 24 hours post-transfection to Dulbecco's Modified Eagle's media (DMEM) supplemented with 30% Inactivated Fetal Serum. The virus-containing supernatants were collected 48 and 72 hours after transfection and passed through a 0.45 μm filter to eliminate cells. Target cells in 6-well tissue culture plates were infected in media containing 8 μg/mL polybrene and spin infections were performed by centrifugation at 2,200 rpm for 1 hour. Twenty-four hours after infection, the virus was removed and the cells selected with the appropriate antibiotic. Cells were then grown in DMEM supplemented with 10% fetal bovine serum and antibiotics.
Seventy-two hours later, cells were placed in standard RPMI media formulated with no amino acids and supplemented with 5 mM Glucose (−AA RPMI, US Biological Life Sciences) for 1 hour then subsequently lysed in lysis buffer (40 mM HEPES, 1% Triton, 10 mM sodium β-glycerophosphate, 10 mM sodium pyrophosphate, 2.5 mM MgCl2 and protease inhibitors). […]
The resulting western blots were scanned and band intensities corresponding to Sestrin2 and FLAG-WDR24 were quantified using the LI-COR® imaging platform. […]
This screening assay measured compound activity in vitro on GATOR2/Sestrin2 complexes purified via immunoprecipitation of stably expressed Flag-WDR24 from HEK293T cells. […]

Sestrin2 = molecular target: T2, Sestrin2 (Homo sapiens, UniProt P58004); assay: Indirect ligand binding assay (ILBA, Method 7), immunoprecipitation with CST anti-Sestrin2 antibody; conditions: crude lysate of amino acid starved human cell line, 1 hour incubation
T2 construct: crude lysate generated from a human cell line; endogenous in cells; host or cells: Unnamed human cell line (crude lysate)
T2 sequence (P58004 1-480): T1 sequence (P58004 1-480)
Procedure: Conversely, compounds that destabilized Sestrin2 as measured by thermal shift assay increased the affinity of the CST antibody for non-denatured Sestrin2. […] In one version, the assay was performed with crude lysate generated from a human cell line after a 1-hour period of amino acid starvation (cells are lysed in 1% Triton, 10 mM beta-glycerol phosphate, 10 mM sodium pyrophosphate, 40 mM HEPES [pH 7.4], 150 mM NaCl and 2.5 mM MgCl2). […] After compound incubation, samples were subjected to immunoprecipitation with the CST anti-Sestrin2 antibody for 1.5 hours followed by a 30-minute incubation with protein-A sepharose as described in L. Chantranupong, et al., Cell Reports 9:1-8 (2014). The sepharose conjugated antibody-protein complex was precipitated via centrifugation and the flow-through was subjected to a second round of immunoprecipitation with a rabbit polyclonal anti-Sestrin2 antibody (Protein Tech, #10795-1-AP) to determine that total Sestrin2 protein levels between samples were equal. SDS-PAGE was performed with the immunoprecipitation samples followed by western-blot with the mouse monoclonal anti-Sestrin2 antibody from SIGMA (cat #WH0083667M3). […] This version of the assay also measured increased instability of Sestrin2 induced by incubation with compounds.

Row | SMILES | Cell-Based mTORC1 Activation (mTORC1; 100 μM) | further results
1 | C[C@H](CC(N)C(=O)O)C(F)(F)F (stereo in doubt) [Example I-167, (2R,4R)-2-amino-5,5,5-trifluoro-4-methylpentanoic acid] | D to F | –
2 | N[C@H](CCCC(F)(F)F)C(=O)O [Example I-9, (R)-2-amino-6,6,6-trifluorohexanoic acid] | E (a shift relative to DMSO of 2.1-5 fold) | –
3 | CC(C)C[C@@H](N)B1OC(C)(C)C(C)(C)O1 [Example I-10] | – | Cell-Based mTORC1 Activation (mTORC1; 30 and 100 μM): D (a shift relative to DMSO control of 0.5 to 2 fold)
4 | CC(C)C[C@H](N)C(N)=O.Cl [Example I-23] | D to F | –
5 | N[C@@H](CC1CCC1)C(=O)O [Example I-37] | E to F | –
6 | CC(C)CCC(N)C(=O)O (stereo not drawn) [Example I-41] | – | Activity of Leucine: % Activity [1]: A (% activity relative to leucine of ≥40%)
7 | NC(CCCC(F)(F)F)C(=O)O (stereo not drawn) [Example I-42] | D to F | –
8 | CC(C)(C)C[C@H](N)C(=O)O [Example I-43] | D to E | –
9 | CC(C)C[C@H](N)C(=O)O [Example I-44] | D (a shift relative to DMSO control of 0.5 to 2 fold) | –
10 | CC(C)C(F)(F)[C@H](N)C(=O)O [Example I-46, (R)-2-amino-3,3-difluoro-4-methylpentanoic acid] | D (a shift relative to DMSO control of 0.5 to 2 fold) | –
11 | CC(C)C(F)(F)[C@@H](N)C(=O)O [Example I-47, (S)-2-amino-3,3-difluoro-4-methylpentanoic acid] | D (a shift relative to DMSO control of 0.5 to 2 fold) | –
12 | CC(C)C[C@H](N)S(=O)(=O)O [Example I-157] | – | Activity of Leucine: % Activity [1]: B to C
13 | CC(C)C[C@H](N)C(=O)NC(C)(C)C [Example I-165] | – | Activity of Leucine: % Activity [1]: A to C
14 | COC(=O)[C@@H](N)CC(C)C [Example I-168] | D to E | –
15 | CC(C)C[C@H](N)C(=O)O [leucine] | – | decrease in the intensity of the band corresponding to Sestrin2 (CST antibody immunoprecipitation) (Sestrin2): ≥ 50%
